The values below are quoted from earlier work in paper PMC5281649 (European Journal of Nuclear Medicine and Molecular Imaging, 2016).

Details of data set [1]: method as in doi:10.1016/S0924-977X(99)80017-0. The conditions noted are these: doses providing full blockade of the enzyme; cited from earlier work.
The conditions of data set [2]: in vivo; cited from earlier work.
The conditions of data set [3]: cited from earlier work.

On to `NCCNC(=O)c1ccc(Cl)cn1` [lazabemide], for which the “Effect on cognition and functionality in patients with AD” value in data set [1] was “significant improvement in cognition and functionality”. Also, the “Reason development not continued” value in data set [2] is recorded as “hepatotoxic liability”.
`C#CCN(C)[C@H](C)Cc1ccccc1` [selegiline]: in data set [3], the “Effect in 2-year trial in patients with moderate AD” value was “may delay functional deterioration and disease progression”; the “Long-term effect on cognition in patients with moderate-to-severe AD” value is “no long-term benefit on cognition”.
